According to US20180105863A1, “NEURAL STEM CELL THERAPY FOR OBESITY AND DIABETES” (ALBERT EINSTEIN COLLEGE OF MEDICINE, INC., priority 2012, published 2018):

System: hypothalamic Notch signaling
Assay: Daily third-ventricle injection of DLL4 in obese mice implanted with DNIκBα-hNSC
Type: in vivo
Method: In vivo implantation of hNSC with Notch inhibition counteracts obesity-T2D: Hypothalamic hNSC implantation was performed to investigate whether Notch inhibition could mimic IKKβ/NF-κB inhibition in counteracting obesity and related metabolic disorders. This investigation was also rationalized by the data showing that Notch signaling was robust (indicated by the active form of Notch 1 protein) in Sox2-positie cells of HFD-fed mice but not chow-fed mice (FIG. 7E). In the experiment, C57BL/6 mice received mediobasal hypothalamic injections of GFP-hNSC which carried Notch 1-4 shRNAs vs. control shRNA, and were then maintained on HFD vs. chow feeding. […] Thus, inhibition of Notch signaling can recapitulate the effect of NF-κB inhibition in the NSC implantation with respect to counteraction against HFD-induced obesity and metabolic disorders. Finally, hNSC implantation was employed to assess the IKKβ/NF-κB-Notch connection which was established in vitro. […] Therefore, NSC implantation can, at least, primarily employ neurogenetic program to counteract against metabolic disease, although other associated factors (such as inflammatory changes) probably also participate primarily or secondarily.

## DLL4: Notch protein ligand DLL4, injected daily into the third ventricle
Data not shown
  DNIκBα-hNSC induced neurogenesis: reversal of ^DNIκBα-hNSC induced neurogenesis
  hypothalamic inflammation: not an induction of hypothalamic inflammation
Mice already obese via chronic HFD feeding
  anti-obesity effect of DNIκBα-hNSC implantation: significantly abolished the anti-obesity effect
